Data set [1] concerns the target T1, COX-1 (Ovis aries, UniProt P05979).
T1 construct: purchased Cayman 560131
T1 sequence (P05979 25-600): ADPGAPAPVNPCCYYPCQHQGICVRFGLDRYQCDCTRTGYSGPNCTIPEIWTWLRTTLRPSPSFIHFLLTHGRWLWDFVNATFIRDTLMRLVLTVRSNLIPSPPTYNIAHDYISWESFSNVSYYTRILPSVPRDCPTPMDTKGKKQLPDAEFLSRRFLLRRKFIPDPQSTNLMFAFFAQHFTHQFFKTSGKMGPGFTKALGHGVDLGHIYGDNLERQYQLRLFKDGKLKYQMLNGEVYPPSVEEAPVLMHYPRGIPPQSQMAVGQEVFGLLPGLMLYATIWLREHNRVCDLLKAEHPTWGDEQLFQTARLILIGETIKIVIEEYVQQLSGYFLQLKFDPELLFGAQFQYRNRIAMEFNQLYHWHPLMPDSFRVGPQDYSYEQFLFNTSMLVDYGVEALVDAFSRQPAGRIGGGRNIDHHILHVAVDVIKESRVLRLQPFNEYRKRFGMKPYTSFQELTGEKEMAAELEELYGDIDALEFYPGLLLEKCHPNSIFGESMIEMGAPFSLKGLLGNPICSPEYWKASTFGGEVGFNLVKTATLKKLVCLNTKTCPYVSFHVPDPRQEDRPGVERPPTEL
Briefly: COX-1 inhibition assay (Cayman COX kit). It is filed as biochemical, ovine/human. The note with it: mean ± SE, n = 3. The text has this: The requirements for High-Performance Liquid Chromatography (HPLC) and all compounds tested were of the utmost analytical purity. […] COX-1 and COX-2 (ovine/human), as well as the 5-LOX enzyme (human recombinant) were obtained from Sigma-Aldrich. Dulbecco’s Modified Eagle’s Medium (DMEM), along with penicillin/streptomycin and L-glutamine, were acquired from Gibco BRL, California, USA. Fetal bovine serum (FBS) and 3-(4, 5-dimethylthiazol-2-yl)-2, 5-[…] (MTT) were supplied by Sigma-Aldrich, St. Louis, Missouri, USA.
The methanolic extract of V. odorata flowers and isolated flavonoids were subjected to an in vitro anti-inflammatory assessment by inhibiting two isoenzymes, cyclooxygenase COX-1 and COX-2 (ovine/human), as well as the 5-LOX enzyme (human recombinant).

The nature of data set [2]: MTT cytotoxicity assay, Caco-2. It is filed as cell-based, human. The note with it: human, Caco-2 cells (human colonic epithelial cells), 48 h. The procedure:
(§1) The assessment of cytotoxicity for the methanolic extract and isolated flavonoids was performed under controlled and sterile conditions within a Class II A2 Laminar flow biosafety cabinet. The carcinoma cell lines used in this study was obtained from Nawah Scientific Inc. (Cairo, Egypt). The cells were cultured in Dulbecco’s Modified Eagle’s Medium, enriched with 10% heat-inactivated fetal bovine serum, 100 U/ml penicillin, and 100 μg/ml streptomycin sulfate, maintained at […] in humidified incubators with 5% CO2. Upon reaching approximately 80% confluence, the cells were subcultured using a trypsin–EDTA solution. Harvesting occurred during the logarithmic growth phase. The methanolic extract and isolated flavonoids were dissolved in DMSO and stored at − 20 °C. For each experimental trial, the stock solutions were mixed with the culture medium to obtain the required final concentrations.
(§2) The effectiveness of the extract was compared to that of the reference drug, Doxorubicin. The percentage of cell viability was calculated by taking the ratio of the absorbance of the plant extract to that of the control, multiplied by 100. Furthermore, the IC50 value of the plant extract was determined using Sigma Plot software version 11 (Spw.exe) (https://sigmaplot.software.informer.com/11.0/).
For orientation: Formazan colour is commonly taken as a measure of viable cells.

For data set [3], the system named is human colonic epithelial cells (Caco-2). Description: MTT cytotoxicity assay, Caco-2. Conditions: Homo sapiens, Caco-2, 48 h, read-out: IC50. It is filed as cell-based. On the procedure:
as §1, §2

pIC50: −log10 of the molar value. In brackets after ≈: the same amount, converted by molar mass.

Usually pIC50 stands for the negative decadic logarithm of the IC50, by convention in mol/L. Low readings indicate a large IC50, high ones a small IC50. As a reminder, the viability is the share of living cells, or the viability signal relative to a control. A word on the IC50: it is the point on the concentration scale where inhibition reaches its midpoint.

As to `COc1c(O)cc2oc(-c3ccccc3)c(OC)c(=O)c2c1O` [5,7-Dihydroxy-3,6-dimethoxyflavone], in data set [1], the negative logarithm of the IC50 (pIC50) was 5.41. Moreover, in data set [2] (Caco-2, 6.25 ug/ml), the cytotoxicity at 48 h, 6.25 µg/ml amounted to 27.8%. Also, the viability at 48 h, 6.25 µg/ml in data set [2] (Caco-2, 6.25 ug/ml, read-out: % Cell viability) was found to be 72.2%. In data set [2] (Caco-2, 12.5 ug/ml), this molecule had a cytotoxicity at 48 h, 12.5 µg/ml of 37.8%. Besides, the viability at 48 h, 12.5 µg/ml in data set [2] (Caco-2, 12.5 ug/ml, read-out: % Cell viability) came out at 62.2%. The molecule also gave a cytotoxicity at 48 h, 25 µg/ml in data set [2] (Caco-2, 25 ug/ml) of 48.9%. In addition, the viability at 48 h, 25 µg/ml in data set [2] (Caco-2, 25 ug/ml, read-out: % Cell viability) was 51.1%. In addition, the cytotoxicity at 48 h, 50 µg/ml in data set [2] (Caco-2, 50 ug/ml) turned out to be 66.5%. The viability at 48 h, 50 µg/ml in data set [2] (Caco-2, 50 ug/ml, read-out: % Cell viability) stood at 33.5%. Also, the cytotoxicity at 48 h, 100 µg/ml in data set [2] (Caco-2, 100 ug/ml) was found to be 86.7%. For the same molecule, in data set [2] (Caco-2, 100 ug/ml, read-out: % Cell viability), the viability at 48 h, 100 µg/ml was 13.3%. In addition, in data set [3], the IC50 was 32.8 µg/mL (≈ 104 µM).

The values above are taken from publication PMC12446468, “Anti-inflammatory and cytotoxic assessment of flavonoids isolated from Viola odorata flowers with computer-guided docking study” (Scientific Reports, 2025).
